From patent US6737383B1, “Herbicidal oxadiazolidines” (priority 1999, dated 2004)

Key:
blackgrass = experiment: Test B pre/postemergence blackgrass; type: in vivo, Alopecurus myosuroides
Outline: (§1)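 Test chemicals in a non-phytotoxic solvent mixture with surfactant were sprayed preemergence onto planted seeds and postemergence onto plants 2 to 18 cm tall (1- to 4-leaf stage). After twelve to sixteen days in a greenhouse, injury was visually rated against untreated controls from 0 (no effect) to 10 (complete control).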

corn = experiment: Test B pre/postemergence corn; type: in vivo, Zea mays
Outline: as §1

rape = experiment: Test B pre/postemergence rape; type: in vivo, Brassica napus
Outline: as §1

wild oat = experiment: Test B pre/postemergence wild oat; type: in vivo, Avena fatua
Outline: as §1

sugar beet = experiment: Test B pre/postemergence sugar beet; type: in vivo, Beta vulgaris
Outline: as §1

morningglory = experiment: Test B pre/postemergence morningglory; type: in vivo, Ipomoea hederacea
Outline: as §1

bedstraw = experiment: Test B pre/postemergence bedstraw; type: in vivo, Galium aparine
Outline: as §1

wheat = experiment: Test B pre/postemergence wheat; type: in vivo, Triticum aestivum
Outline: as §1

crabgrass = experiment: Test B pre/postemergence crabgrass; type: in vivo, Digitaria sanguinalis
Outline: as §1

giant foxtail = experiment: Test B pre/postemergence giant foxtail; type: in vivo, Setaria faberii
Outline: as §1

velvetleaf = experiment: Test B pre/postemergence velvetleaf; type: in vivo, Abutilon theophrasti
Outline: as §1

purple nutsedge = experiment: Test B pre/postemergence purple nutsedge; type: in vivo, Cyperus rotundus
Outline: as §1

cocklebur = experiment: Test B pre/postemergence cocklebur; type: in vivo, Xanthium strumarium
Outline: as §1

surinam grass = experiment: Test B pre/postemergence surinam grass; type: in vivo, Brachiaria decumbens
Outline: as §1

soybean = experiment: Test B pre/postemergence soybean; type: in vivo, Glycine max
Outline: as §1

pigweed = experiment: Test B pre/postemergence pigweed; type: in vivo, Amaranthus retroflexus
Outline: as §1

[1] = Postemergence, Rate 62 g/ha, scale of 0 to 10, 0 is no effect, 10 is complete control
[2] = Postemergence, Rate 125 g/ha, scale 0 to 10, 0 is no effect, 10 is complete control
[3] = Postemergence, Rate 250 g/ha, scale 0 to 10
[4] = Postemergence, Rate 500 g/ha, scale 0 to 10, 0 is no effect, 10 is complete control
[5] = Preemergence, Rate 62 g/ha, scale of 0 to 10 where 0 is no effect and 10 is complete control
[6] = Preemergence, Rate 125 g/ha, scale 0 to 10, 0 is no effect, 10 is complete control
[7] = Preemergence, Rate 250 g/ha, scale 0 to 10, 0 is no effect, 10 is complete control
[8] = Preemergence, Rate 500 g/ha, scale of 0 to 10 where 0 is no effect and 10 is complete control
[9] = Preemergence, Rate 500 g/ha, scale 0 to 10, 0 is no effect, 10 is complete control

## CC(C)N(C(=O)n1oc(=O)n(CC2OCCO2)c1=O)c1ccc(F)cc1F [Compound 501]
blackgrass; [1]
  Blackgrass plant response rating: 3
blackgrass; [2]
  Blackgrass plant response rating: 6
blackgrass; [3]
  Blackgrass plant response rating: 6
blackgrass; [4]
  Plant response rating, Blackgrass: 7
blackgrass; [5]
  Plant response rating, Blackgrass: 5
blackgrass; [6]
  Blackgrass plant response rating: 5
blackgrass; [7]
  Blackgrass plant response rating: 9
blackgrass; [8]
  Blackgrass plant response rating: 9
corn; [1]
  Corn plant response rating: 0
corn; [2]
  Corn plant response rating: 0
corn; [3]
  Corn plant response rating: 4
corn; [4]
  Plant response rating, Corn: 6
corn; [6]
  Corn plant response rating: 2
rape; [1]
  Rape plant response rating: 2
rape; [2]
  Rape plant response rating: 2
rape; [4]
  Plant response rating, Rape: 7
rape; [5]
  Plant response rating, Rape: 0
rape; [6]
  Rape plant response rating: 0
rape; [8]
  Rape plant response rating: 10
Wild oat; [1]
  Wild oats plant response rating: 0
Wild oat; [2]
  Wild oats plant response rating: 0
Wild oat; [4]
  Plant response rating, Wild oats: 3
Wild oat; [5]
  Plant response rating, Wild oats: 0
Wild oat; [6]
  Wild oats plant response rating: 7
Wild oat; [8]
  Wild oats plant response rating: 10
Sugar beet; [1]
  Sugarbeets plant response rating: 5
Sugar beet; [2]
  Sugarbeets plant response rating: 5
Sugar beet; [4]
  Plant response rating, Sugarbeets: 8
Sugar beet; [5]
  Plant response rating, Sugarbeets: 0
Sugar beet; [6]
  Sugarbeets plant response rating: 3
Sugar beet; [8]
  Sugarbeets plant response rating: 8
morningglory; [1]
  Morningglory plant response rating: 0
morningglory; [2]
  Morningglory plant response rating: 3
morningglory; [4]
  Plant response rating, Morningglory: 4
morningglory; [5]
  Plant response rating, Morningglory: 0
morningglory; [6]
  Morningglory plant response rating: 0
morningglory; [8]
  Morningglory plant response rating: 5
bedstraw; [4]
  Plant response rating, Bedstraw: 9
bedstraw; [5]
  Plant response rating, Bedstraw: 2
bedstraw; [6]
  Bedstraw plant response rating: 9
bedstraw; [7]
  Bedstraw plant response rating: 10
bedstraw; [9]
  Bedstraw plant response rating: 9
wheat; [1]
  Wheat plant response rating: 2
wheat; [4]
  Plant response rating, Wheat: 3
wheat; [5]
  Plant response rating, Wheat: 4
wheat; [6]
  Wheat plant response rating: 4
wheat; [8]
  Wheat plant response rating: 8
crabgrass; [1]
  Crabgrass plant response rating: 7
crabgrass; [2]
  Crabgrass plant response rating: 8
crabgrass; [3]
  Crabgrass plant response rating: 9
crabgrass; [4]
  Plant response rating, Crabgrass: 8
crabgrass; [5]
  Plant response rating, Crabgrass: 8
crabgrass; [6]
  Crabgrass plant response rating: 9
crabgrass; [8]
  Crabgrass plant response rating: 9
Giant foxtail; [1]
  Giant foxtail plant response rating: 8
Giant foxtail; [2]
  Giant foxtail plant response rating: 8
Giant foxtail; [4]
  Plant response rating, Giant foxtail: 8
Giant foxtail; [5]
  Plant response rating, Giant foxtail: 9
Giant foxtail; [6]
  Giant foxtail plant response rating: 10
Giant foxtail; [8]
  Giant foxtail plant response rating: 10
velvetleaf; [1]
  Velvetleaf plant response rating: 0
velvetleaf; [2]
  Velvetleaf plant response rating: 0
velvetleaf; [4]
  Plant response rating, Velvetleaf: 3
velvetleaf; [5]
  Plant response rating, Velvetleaf: 0
velvetleaf; [6]
  Velvetleaf plant response rating: 2
velvetleaf; [8]
  Velvetleaf plant response rating: 5
Purple nutsedge; [2]
  Nutsedge plant response rating: 0
Purple nutsedge; [4]
  Plant response rating, Nutsedge: 2
Purple nutsedge; [5]
  Plant response rating, Nutsedge: 0
Purple nutsedge; [6]
  Nutsedge plant response rating: 3
Purple nutsedge; [8]
  Nutsedge plant response rating: 9
cocklebur; [1]
  Cocklebur plant response rating: 0
cocklebur; [2]
  Cocklebur plant response rating: 0
cocklebur; [3]
  Cocklebur plant response rating: 2
cocklebur; [4]
  Plant response rating, Cocklebur: 5
cocklebur; [5]
  Plant response rating, Cocklebur: 0
cocklebur; [6]
  Cocklebur plant response rating: 0
cocklebur; [7]
  Cocklebur plant response rating: 0
cocklebur; [8]
  Cocklebur plant response rating: 3
Surinam grass; [1]
  B. signalgrass plant response rating: 2
Surinam grass; [2]
  B. signalgrass plant response rating: 6
Surinam grass; Postemergence, Rate 250 g/ha, scale 0 to 10, 0 no effect, 10 complete control
  B. signalgrass plant response rating: 7
Surinam grass; [4]
  Plant response rating, B. signalgrass: 7
Surinam grass; [5]
  Plant response rating, B. signalgrass: 8
Surinam grass; [6]
  B. signalgrass plant response rating: 9
Surinam grass; [7]
  B. signalgrass plant response rating: 9
Surinam grass; [9]
  B. signalgrass plant response rating: 10
soybean; [1]
  Soybean plant response rating: 4
soybean; [2]
  Soybean plant response rating: 3
soybean; [4]
  Plant response rating, Soybean: 5
soybean; [5]
  Plant response rating, Soybean: 0
soybean; [6]
  Soybean plant response rating: 0
soybean; [8]
  Soybean plant response rating: 8
pigweed; [1]
  Redroot pigweed plant response rating: 0
pigweed; [2]
  Redroot pigweed plant response rating: 4
pigweed; [4]
  Plant response rating, Redroot pigweed: 5
pigweed; [5]
  Plant response rating, Redroot pigweed: 9
pigweed; [6]
  Redroot pigweed plant response rating: 10
pigweed; [8]
  Redroot pigweed plant response rating: 10
